According to the supplement of paper PMC10307832:

How the values were obtained:
Test in all cases: relative viability (nuclei count vs DMSO), 5 days (fraction); higher = more cells survive
NCI-H1793 = system: NCI-H1793
Outline: (§1)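 Lung cancer cell lines were pin-tool dosed in 1536-well plates on the day after seeding, with either a lone drug or a fixed anchor-drug dose plus five library-drug doses (not always all listed) in √10 steps. Nuclei were counted on 4× images after 5 days. Relative viability is the ratio of treated-well to vehicle-well nuclei counts, with each value a median of duplicate plates.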

SK-MES-1 = system: SK-MES-1
Outline: as §1

NCI-H2347 = system: NCI-H2347
Outline: as §1

NCI-H2009 = system: NCI-H2009
Outline: as §1

COR-L23 = system: COR-L23
Outline: as §1

NCI-H1755 = system: NCI-H1755
Outline: as §1

NCI-H2228 = system: NCI-H2228
Outline: as §1

NCI-H838 = system: NCI-H838
Outline: as §1

NCI-H1355 = system: NCI-H1355
Outline: as §1

NCI-H1993 = system: NCI-H1993
Outline: as §1

NCI-H1395 = system: NCI-H1395
Outline: as §1

HARA = system: HARA
Outline: as §1

NCI-H1734 = system: NCI-H1734
Outline: as §1

HOP-62 = system: HOP-62
Outline: as §1

UMC-11 = system: UMC-11
Outline: as §1

NCI-H647 = system: NCI-H647
Outline: as §1

NCI-H1792 = system: NCI-H1792
Outline: as §1

COR-L 105 = system: COR-L 105
Outline: as §1

NCI-H2170 = system: NCI-H2170
Outline: as §1

HCC-15 = system: HCC-15
Outline: as §1

CCN(CC)CCCCNc1ncc2cc(-c3cc(OC)cc(OC)c3)c(NC(=O)NC(C)(C)C)nc2n1 + CC1(C)CCC(c2ccc(Cl)cc2)=C(CN2CCN(c3ccc(C(=O)NS(=O)(=O)c4ccc(N[C@H](CCN5CCOCC5)CSc5ccccc5)c(S(=O)(=O)C(F)(F)F)c4)cc3)CC2)C1 [Navitoclax] (partner 0.5 µM)
relative viability (NCI-H1793; first compound 0.01 µM): 0.988
relative viability (NCI-H1793; first compound 0.1 µM): 0.326
relative viability (NCI-H1793; first compound 0.3162 µM): 0.439
relative viability (NCI-H1793; first compound 1 µM): 0.326
relative viability (SK-MES-1; first compound 0.01 µM): 1.27
relative viability (SK-MES-1; first compound 0.03162 µM): 1.37
relative viability (SK-MES-1; first compound 0.1 µM): 1.6
relative viability (SK-MES-1; first compound 0.3162 µM): 1.36
relative viability (SK-MES-1; first compound 1 µM): 1.22
relative viability (NCI-H2347; first compound 0.01 µM): 0.817
relative viability (NCI-H2347; first compound 0.03162 µM): 0.823
relative viability (NCI-H2347; first compound 0.1 µM): 0.762
relative viability (NCI-H2347; first compound 0.3162 µM): 0.833
relative viability (NCI-H2347; first compound 1 µM): 0.676
relative viability (NCI-H2009; first compound 0.01 µM): 1.25
relative viability (NCI-H2009; first compound 0.03162 µM): 1.14
relative viability (NCI-H2009; first compound 0.1 µM): 1.21
relative viability (NCI-H2009; first compound 0.3162 µM): 1.31
relative viability (NCI-H2009; first compound 1 µM): 1.11
relative viability (COR-L23; first compound 0.01 µM): 1.14
relative viability (COR-L23; first compound 0.03162 µM): 1.12
relative viability (COR-L23; first compound 0.1 µM): 1.33
relative viability (COR-L23; first compound 0.3162 µM): 1.18
relative viability (COR-L23; first compound 1 µM): 1.12
relative viability (NCI-H1755; first compound 0.01 µM): 1.14
relative viability (NCI-H1755; first compound 0.03162 µM): 1.08
relative viability (NCI-H1755; first compound 0.1 µM): 1.07
relative viability (NCI-H1755; first compound 0.3162 µM): 1.09
relative viability (NCI-H1755; first compound 1 µM): 0.987
relative viability (NCI-H2228; first compound 0.01 µM): 0.841
relative viability (NCI-H2228; first compound 0.03162 µM): 0.866
relative viability (NCI-H2228; first compound 0.1 µM): 0.979
relative viability (NCI-H2228; first compound 0.3162 µM): 0.884
relative viability (NCI-H2228; first compound 1 µM): 0.541
relative viability (NCI-H838; first compound 0.01 µM): 1.18
relative viability (NCI-H838; first compound 0.03162 µM): 1.12
relative viability (NCI-H838; first compound 0.1 µM): 1.44
relative viability (NCI-H838; first compound 0.3162 µM): 1.07
relative viability (NCI-H838; first compound 1 µM): 0.809
relative viability (NCI-H1355; first compound 0.01 µM): 0.906
relative viability (NCI-H1355; first compound 0.03162 µM): 1.09
relative viability (NCI-H1355; first compound 0.1 µM): 0.991
relative viability (NCI-H1355; first compound 0.3162 µM): 1.02
relative viability (NCI-H1355; first compound 1 µM): 0.938
relative viability (NCI-H1993; first compound 0.01 µM): 0.904
relative viability (NCI-H1993; first compound 0.03162 µM): 0.954
relative viability (NCI-H1993; first compound 0.1 µM): 0.963
relative viability (NCI-H1993; first compound 0.3162 µM): 1.07
relative viability (NCI-H1993; first compound 1 µM): 0.895
relative viability (NCI-H1395; first compound 0.03162 µM): 1.1
relative viability (NCI-H1395; first compound 0.1 µM): 1.09
relative viability (NCI-H1395; first compound 0.3162 µM): 1.17
relative viability (NCI-H1395; first compound 1 µM): 0.751
relative viability (HARA; first compound 0.01 µM): 1.19
relative viability (HARA; first compound 0.03162 µM): 1.15
relative viability (HARA; first compound 0.1 µM): 1.29
relative viability (HARA; first compound 0.3162 µM): 1.14
relative viability (HARA; first compound 1 µM): 1.04
relative viability (NCI-H1734; first compound 0.01 µM): 0.971
relative viability (NCI-H1734; first compound 0.03162 µM): 0.863
relative viability (NCI-H1734; first compound 0.1 µM): 0.824
relative viability (NCI-H1734; first compound 0.3162 µM): 1.03
relative viability (NCI-H1734; first compound 1 µM): 0.761
relative viability (HOP-62; first compound 0.01 µM): 1.15
relative viability (HOP-62; first compound 0.03162 µM): 1.13
relative viability (HOP-62; first compound 0.1 µM): 1.29
relative viability (HOP-62; first compound 0.3162 µM): 0.974
relative viability (HOP-62; first compound 1 µM): 1.06
relative viability (UMC-11; first compound 0.01 µM): 0.303
relative viability (UMC-11; first compound 0.03162 µM): 0.293
relative viability (UMC-11; first compound 0.1 µM): 0.318
relative viability (UMC-11; first compound 0.3162 µM): 0.318
relative viability (UMC-11; first compound 1 µM): 0.308
relative viability (NCI-H647; first compound 0.01 µM): 1.12
relative viability (NCI-H647; first compound 0.03162 µM): 1.14
relative viability (NCI-H647; first compound 0.1 µM): 1.41
relative viability (NCI-H647; first compound 0.3162 µM): 1.21
relative viability (NCI-H647; first compound 1 µM): 0.929
relative viability (NCI-H1792; first compound 0.01 µM): 0.688
relative viability (NCI-H1792; first compound 0.03162 µM): 0.739
relative viability (NCI-H1792; first compound 0.1 µM): 0.712
relative viability (NCI-H1792; first compound 0.3162 µM): 1.49
relative viability (NCI-H1792; first compound 1 µM): 0.19
relative viability (COR-L 105; first compound 0.01 µM): 0.811
relative viability (COR-L 105; first compound 0.03162 µM): 0.81
relative viability (COR-L 105; first compound 0.1 µM): 0.83
relative viability (COR-L 105; first compound 0.3162 µM): 0.872
relative viability (COR-L 105; first compound 1 µM): 0.883
relative viability (NCI-H2170; first compound 0.01 µM): 0.586
relative viability (NCI-H2170; first compound 0.03162 µM): 0.75
relative viability (NCI-H2170; first compound 0.1 µM): 0.558
relative viability (NCI-H2170; first compound 0.3162 µM): 0.641
relative viability (NCI-H2170; first compound 1 µM): 0.528
relative viability (HCC-15; first compound 0.01 µM): 0.748
relative viability (HCC-15; first compound 0.03162 µM): 0.724
relative viability (HCC-15; first compound 0.1 µM): 0.859
relative viability (HCC-15; first compound 0.3162 µM): 0.784
relative viability (HCC-15; first compound 1 µM): 0.7
